# Test results: patent publication US9062071B2, “Substituted piperidines as HDM2 inhibitors” (Merck Sharp & Dohme Corp, priority 2011, dated 2015)
# Target: HDM2 protein (Homo sapiens, UniProt Q00987)
# Assay: fluorescence polarization screening assay (FP IC50)
# Assay type: binding
# Settings: class symbols
# Method: The compounds were evaluated to determine activity at the HDM2 protein by known methods such as the fluorescence polarization screening assay that measures the inhibitory concentration that achieves 50% of maximal activity (FP IC50) and the dissociation constant for inhibitor binding (FP Ki). [Zhang et al., J. Analytical Biochemistry 331: 138-146 (2004)].
# Chain of HDM2 protein (Q00987 whole entry): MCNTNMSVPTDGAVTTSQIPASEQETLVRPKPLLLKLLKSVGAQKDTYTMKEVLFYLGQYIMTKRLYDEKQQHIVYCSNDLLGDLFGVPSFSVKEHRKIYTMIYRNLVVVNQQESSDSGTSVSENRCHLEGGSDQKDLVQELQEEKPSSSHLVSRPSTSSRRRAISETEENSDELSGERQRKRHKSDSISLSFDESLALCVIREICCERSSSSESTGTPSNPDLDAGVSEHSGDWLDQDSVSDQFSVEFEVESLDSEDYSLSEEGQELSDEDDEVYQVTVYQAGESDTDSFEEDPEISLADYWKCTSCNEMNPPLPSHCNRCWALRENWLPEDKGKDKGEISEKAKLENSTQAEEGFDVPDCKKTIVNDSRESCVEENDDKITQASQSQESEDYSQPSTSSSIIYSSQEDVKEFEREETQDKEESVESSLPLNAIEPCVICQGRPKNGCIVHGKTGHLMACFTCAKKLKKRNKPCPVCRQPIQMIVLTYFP
row,Structure (SMILES),IC50 [nM]
1,"CCC[C@H]1N(C(=O)c2ncccc2C(F)(F)F)CCC[C@@]1(Oc1csc(C(F)(F)F)c1)C(=O)N1CCc2cc(Cl)ccc2C1C(=O)N1CCN(CCO)CC1 (stereo partly drawn) [Compound A92, 2-{4-[(6-chloro-2-{[(2R,3S)-2-propyl-1-{[3-(trifluoromethyl)pyridin-2-yl]carbonyl}-3-{[5-(trifluoromethyl)thiophen-3-yl]oxy}piperidin-3-yl]carbonyl}-1,2,3,4-tetrahydroisoquinolin-1-yl)carbonyl]piperazin-1-yl}ethanol]",101 to 20000
2,"CCC[C@H]1N(C(=O)c2ncccc2C(F)(F)F)CCC[C@@]1(Oc1csc(C(F)(F)F)c1)C(=O)N1CCc2cc(Cl)ccc2C1CC(=O)N1CCNC(=O)C1 (stereo partly drawn) [Compound A84, 4-[(6-chloro-2-{[(2R,3S)-2-propyl-1-{[3-(trifluoromethyl)pyridin-2-yl]carbonyl}-3-{[5-(trifluoromethyl)thiophen-3-yl]oxy}piperidin-3-yl]carbonyl}-1,2,3,4-tetrahydroisoquinolin-1-yl)acetyl]piperazin-2-one]",1 to 100
3,"CCC[C@H]1N(C(=O)c2ncccc2C(F)(F)F)CCC[C@@]1(Oc1csc(C(F)(F)F)c1)C(=O)N1Cc2sccc2CC1C(=O)O (stereo partly drawn) [Compound A171, 6-{[(2R,3S)-2-propyl-1-{[3-(trifluoromethyl)pyridin-2-yl]carbonyl}-3-{[5-(trifluoromethyl)thiophen-3-yl]oxy}piperidin-3-yl]carbonyl}-4,5,6,7-tetrahydrothieno[2,3-c]pyridine-5-carboxylic acid]",101 to 20000
4,"CCC[C@H]1N(C(=O)c2ncccc2C(F)(F)F)CCC[C@@]1(Oc1csc(C(F)(F)F)c1)C(=O)N1CCc2cc(Cl)ccc2C1CCC(=O)NS(C)(=O)=O (stereo partly drawn) [Compound A61, 3-(6-chloro-2-{[(2R,3S)-2-propyl-1-{[3-(trifluoromethyl)pyridin-2-yl]carbonyl}-3-{[5-(trifluoromethyl)thiophen-3-yl]oxy}piperidin-3-yl]carbonyl}-1,2,3,4-tetrahydroisoquinolin-1-yl)-N-(methylsulfonyl) propanamide]",1 to 100
5,"CCC[C@H]1N(C(=O)c2ncccc2C(F)(F)F)CCC[C@@]1(Oc1csc(C(F)(F)F)c1)C(=O)N1CCc2ccsc2C1CC(C)(C)C(=O)OCC (stereo partly drawn) [Compound A28, ethyl 2,2-dimethyl-3-(6-{[(2R,3S)-2-propyl-1-{[3-(trifluoromethyl)pyridin-2-yl]carbonyl}-3-{[5-(trifluoromethyl)thiophen-3-yl]oxy}piperidin-3-yl]carbonyl}-4,5,6,7-tetrahydrothieno[2,3-c]pyridin-7-yl)propanoate]",101 to 20000
6,"CCC[C@H]1N(C(=O)c2ncccc2C(F)(F)F)CCC[C@@]1(Oc1csc(C(F)(F)F)c1)C(=O)N1CCc2cc(Cl)ccc2C1COC (stereo partly drawn) [Compound A106, 6-chloro-1-(methoxymethyl)-2-{[(2R,3S)-2-propyl-1-{[3-(trifluoromethyl)pyridin-2-yl]carbonyl}-3-{[5-(trifluoromethyl)thiophen-3-yl]oxy}piperidin-3-yl]carbonyl}-1,2,3,4-tetrahydroisoquinoline]",1 to 100
7,CCC[C@H]1N(C(=O)c2ncccc2C(F)(F)F)CCC[C@@]1(Oc1csc(C(F)(F)F)c1)C(=O)N1CCc2cc(C#N)ccc2C1 [Compound A46],101 to 20000
8,"CCC[C@H]1N(C(=O)c2ncccc2C(F)(F)F)CCC[C@@]1(Oc1csc(C(F)(F)F)c1)C(=O)N1Cc2cc(F)c(F)cc2C[C@H]1CCC(=O)O [Compound A157, 3-[(3R)-6,7-difluoro-2-{[(2R,3S)-2-propyl-1-{[3-(trifluoromethyl)pyridin-2-yl]carbonyl}-3-{[5-(trifluoromethyl)thiophen-3-yl]oxy}piperidin-3-yl]carbonyl}-1,2,3,4-tetrahydroisoquinolin-3-yl]propanoic acid]",1 to 100
9,"CCC[C@H]1N(C(=O)c2ncccc2C(F)(F)F)CCC[C@@]1(Oc1csc(C(F)(F)F)c1)C(=O)N1CCc2cc(-c3ccccc3)ccc2C1 [Compound A62, 6-phenyl-2-{[(2R,3S)-2-propyl-1-{[3-(trifluoromethyl)pyridin-2-yl]carbonyl}-3-{[5-(trifluoromethyl)thiophen-3-yl]oxy}piperidin-3-yl]carbonyl}-1,2,3,4-tetrahydroisoquinoline]",101 to 20000
10,"CCC[C@H]1N(C(=O)c2ncccc2C(F)(F)F)CCC[C@@]1(Oc1csc(C(F)(F)F)c1)C(=O)N1Cc2ccc(Cl)cc2C[C@@H]1CN(C)C(=O)CC [Compound A152, N-{[(3R)-6-chloro-2-{[(2R,3S)-2-propyl-1-{[3-(trifluoromethyl)pyridin-2-yl]carbonyl}-3-{[5-(trifluoromethyl)thiophen-3-yl]oxy}piperidin-3-yl]carbonyl}-1,2,3,4-tetrahydroisoquinolin-3-yl]methyl}-N-methylpropanamide]",1 to 100
11,"CCC[C@H]1N(C(=O)c2ncccc2C(F)(F)F)CCC[C@@]1(Oc1csc(C(F)(F)F)c1)C(=O)N1CCc2cc(F)ccc2C1CC(=O)O (stereo partly drawn) [Compound A52, (6-fluoro-2-{[(2R,3S)-2-propyl-1-{[3-(trifluoromethyl)pyridin-2-yl]carbonyl}-3-{[5-(trifluoromethyl)thiophen-3-yl]oxy}piperidin-3-yl]carbonyl}-1,2,3,4-. tetrahydroisoquinolin-1-yl)acetic acid]",1 to 100
12,"CCC[C@H]1N(C(=O)c2ncccc2C(F)(F)F)CCC[C@@]1(Oc1csc(C(F)(F)F)c1)C(=O)N1Cc2ccc(Cl)cc2C[C@@H]1CN(C)C(=O)[C@@H](C)OC [Compound A151, (2R)-N-{[(3R)-6-chloro-2-{[(2R,3S)-2-propyl-1-{[3-(trifluoromethyl)pyridin-2-yl]carbonyl}-3-{[5-(trifluoromethyl)thiophen-3-yl]oxy}piperidin-3-yl]carbonyl}-1,2,3,4-tetrahydroisoquinolin-3-yl]methyl}-2-methoxy-N-methylpropanamide]",1 to 100
13,"CCC[C@H]1N(C(=O)c2ncccc2C(F)(F)F)CCC[C@@]1(Oc1csc(C(F)(F)F)c1)C(=O)N1Cc2ccc(Cl)cc2C[C@@H]1CCC(=O)NS(C)(=O)=O [Compound A148, 3-[(3S)-6-chloro-2-{[(2R,3S)-2-propyl-1-{[3-(trifluoromethyl)pyridin-2-yl]carbonyl}-3-{[5-(trifluoromethyl)thiophen-3-yl]oxy}piperidin-3-yl]carbonyl}-1,2,3,4-tetrahydroisoquinolin-3-yl]-N-(methylsulfonyl) propanamide]",1 to 100
14,"CCC[C@H]1N(C(=O)c2ncccc2C(F)(F)F)CCC[C@@]1(Oc1csc(C(F)(F)F)c1)C(=O)N1CCc2c(ccc(Cl)c2Cl)C1 [Compound A86, 5,6-dichloro-2-{[(2R,3S)-2-propyl-1-{[3-(trifluoromethyl)pyridin-2-yl]carbonyl}-3-{[5-(trifluoromethyl)thiophen-3-yl]oxy}piperidin-3-yl]carbonyl}-1,2,3,4-tetrahydroisoquinoline]",101 to 20000
15,"CCC[C@H]1N(C(=O)c2ncccc2C(F)(F)F)CCC[C@@]1(Oc1csc(C(F)(F)F)c1)C(=O)N1Cc2ccc(F)cc2C[C@H]1CN(C)C(=O)C(F)F [Compound A159, 2,2-difluoro-N-{[(3S)-6-fluoro-2-{[(2R,3S)-2-propyl-1-{[3-(trifluoromethyl)pyridin-2-yl]carbonyl}-3-{[5-(trifluoromethyl)thiophen-3-yl]oxy}piperidin-3-yl]carbonyl}-1,2,3,4-tetrahydroisoquinolin-3-yl]methyl}-N-methylacetamide]",101 to 20000
16,"CCC[C@H]1N(C(=O)c2ncccc2C(F)(F)F)CCC[C@@]1(Oc1csc(C(F)(F)F)c1)C(=O)N1CCc2cc(Cl)ccc2C1C#N (stereo partly drawn) [Compound A78, 6-chloro-2-{[(2R,3S)-2-propyl-1-{[3-(trifluoromethyl)pyridin-2-yl]carbonyl}-3-{[5-(trifluoromethyl)thiophen-3-yl]oxy}piperidin-3-yl]carbonyl}-1,2,3,4-tetrahydroisoquinoline-1-carbonitrile]",101 to 20000
17,"CCC[C@H]1N(C(=O)c2ncccc2C(F)(F)F)CCC[C@@]1(Oc1csc(C(F)(F)F)c1)C(=O)N1CCc2ccc(Cl)cc2C1 [Compound A139, 7-chloro-2-{[(2R,3S)-2-propyl-1-{[3-(trifluoromethyl)pyridin-2-yl]carbonyl}-3-{[5-(trifluoromethyl)thiophen-3-yl]oxy}piperidin-3-yl]carbonyl}-1,2,3,4-tetrahydroisoquinoline]",101 to 20000
18,"CCC[C@H]1N(C(=O)c2ncccc2C(F)(F)F)CCC[C@@]1(Oc1csc(C(F)(F)F)c1)C(=O)N1CCc2cc(Cl)ccc2[C@@H]1CCC(=O)NC#N [Compound A80, 3-[(1S)-6-chloro-2-{[(2R,3S)-2-propyl-1-{[3-(trifluoromethyl)pyridin-2-yl]carbonyl}-3-{[5-(trifluoromethyl)thiophen-3-yl]oxy}piperidin-3-yl]carbonyl}-1,2,3,4-tetrahydroisoquinolin-1-yl]-N-cyanopropanamide]",1 to 100
19,"CCC[C@H]1N(C(=O)c2ncccc2C(F)(F)F)CCC[C@@]1(Oc1csc(C(F)(F)F)c1)C(=O)N1CCc2sc(Cl)cc2C1C(=O)O (stereo partly drawn) [Compound A13, 2-chloro-5-{[(2R,3S)-2-propyl-1-{[3-(trifluoromethyl)pyridin-2-yl]carbonyl}-3-{[5-(trifluoromethyl)thiophen-3-yl]oxy}piperidin-3-yl]carbonyl}-4,5,6,7-tetrahydrothieno[3,2-c]pyridine-4-carboxylic acid]",1 to 100
20,"CCC[C@H]1N(C(=O)c2ncccc2C(F)(F)F)CCC[C@@]1(Oc1csc(C(F)(F)F)c1)C(=O)N1CCc2cc(Cl)ccc2[C@H]1CCC(=O)N1CCN(CCO)CC1 [Compound A91, 2-(4-{3-[(1R)-6-chloro-2-{[(2R,3S)-2-propyl-1-{[3-(trifluoromethyl)pyridin-2-yl]carbonyl}-3-{[5-(trifluoromethyl)thiophen-3-yl]oxy}piperidin-3-yl]carbonyl}-1,2,3,4-tetrahydroisoquinolin-1 - yl]propanoyl}piperazin-1-yl)ethanol]",1 to 100
